Laboratory results taken from patent US20210181179A1, “DIAGNOSIS AND TREATMENT OF IMMUNOTHERAPY-INDUCED NEUROTOXICITY” (MEMORIAL SLOAN KETTERING CANCER CENTER, priority 2018, published 2021).

How the values were obtained:
[1] = test system: HMC3 microglial cell line; test: RT-PCR of cytokines and chemokines in microglial cells; assay type: cell-based, human; conditions: for key chemokines, including CCL2, CXCL9 and CXCL10, and cytokine IL1beta: monocyte and microglial cell activation
Text: FIGS. 19A-E. Kynurenine metabolites contribute to CRS. (FIG. 19A-B) RT-PCR analysis of cytokines and chemokines that lead to myeloid cell activation in response to kynurenine metabolites exposure. ([…]) Western blot analysis of HMC3 microglial cell line in response to kynurenine metabolites exposure. (FIGS. 19D-E.) RT-PCR analysis of cytokines and chemokines in response to exposure to cytokines shown (TNF, Il1β, IFNγ).
CCL2 (MCP1) and CXCL10 (IP10) serve as chemo-attractants for myeloid and T cells, while CXCL9 (MIG) is a potent T cell chemoattractant. […] We confirmed Il1β protein production in response to Il1β stimulation (FIG. 19C). Il1β production was dependent on Ahr activity, as addition of an Ahr antagonist blocked up-regulation of Il1β. Il1β is a strong inducer of microglial activation.

[2] = test system: adult patients with CD19+B-ALL; test: Management of neurotoxicity and CRS (tocilizumab, corticosteroid, seizure prophylaxis) in the 19-28z CAR T cell trial; assay type: in vivo, human
Text: The anti-IL-6 receptor monoclonal antibody, tocilizumab, with or without corticosteroid is often used to mitigate CRS and neurotoxicity. Six (18%) of 33 patients with neurotoxicity received tocilizumab alone; 14 (42%) received tocilizumab plus corticosteroid; 4 (12%) received corticosteroid alone; and 9 (27%) received neither tocilizumab nor corticosteroid (FIG. 6/Supplementary Fig. S1). In the 16 patients with severe neurotoxicity who received tocilizumab, 9 (56.3%) had peak neurotoxicity after the first dose of tocilizumab whereas 7 (43.7%) had peak neurotoxicity prior to or on the day of tocilizumab administration. […] The time from first tocilizumab and/or steroid dose to resolution of neurotoxicity (median, 9 days; range 4-21 days) was longer than the time to resolution of CRS (median, 1 day; range 0-3 days; P<0.001), confirming previous findings that neurotoxicity is less responsive than CRS to these treatment interventions.
Toxicity assessment: CRS was graded according to the MSKCC CRS grading system. Severe CRS was defined as ≥grade 3. Neurotoxicity was prospectively graded according to National Cancer Institute common terminology criteria for adverse events (CTCAE) v4.03 by the principal investigator (P). An independent retrospective review of the electronic medical record was performed by a neurologist (BS) who assigned daily neurotoxicity grades to the AE terms according to CTCAE v4.03. Discrepancies were adjudicated by consensus review. All patients developing neurologic symptoms were evaluated by the neurology consult service and followed with daily neurologic assessments until neurologic symptom resolution. Severe neurotoxicity was defined as ≥grade 3 toxicity with the exception that any seizure (including grade 1 or 2 by CTCAE criteria) was included as severe neurotoxicity.

NMDA receptors = test: Western blot of HCN2 neurons for NMDA receptor activation (p-CREB, p-Erk); assay type: cell-based; conditions: 30 min, cytokines applied via culture filtrates of stimulated HMC3 microglia
Text: FIGS. 18A-B. Western blot analysis of HCN2 neurons showing NMDA receptor activation through increase in p-CREB levels in response to exposure to conditioned media. The conditioned media was produced by microglia and monocytes treated with cytokines to stimulate quinolinic acid (QUIN) production (FIG. 18A). This effect can be blocked with the use of IDO and AhR inhibitors (FIG. 18B) that block either kynurenine metabolite production or signaling.
QUIN binds directly to NMDA receptors, and leads to Ca^2+ influx, followed by activation cascade through Erk kinase phosphorylation and eventual phosphorylation of CREB transcription factor. In order to test if microglial cell derived QUIN is sufficient to activate NMDA receptors, we performed a co-culture experiment. Culture filtrates from an HMC3 microglial cell line were stimulated with IFNγ, Il1β, or combination of both, and were layered over HCN2 cortical neurons for 30 min, after which the cells were lysed and tested for downstream effectors of NMDA receptor activation.

CCF-STTG1 (astrocytoma) = test: Net production of TRP metabolites in media samples, CCF-STTG1; assay type: cell-based, human
Text: (§1) Under physiological conditions in the brain, kynurenine metabolism is driven by microglial cells and astrocytes with preferential production of QUIN and KA respectively. […] This may have been due to T cells producing cytokines and/or intermediate metabolites that are further metabolized to QUIN by the cells. In order to identify specific factors that may lead to tryptophan-kynurenine pathway up-regulation for QUIN production, we tested a panel of cytokine and chemokines implicated in NTX and CRS. […] We initially evaluated the panel of the select factors individually (FIGS. 16 A-B). We selected several cytokines based on their effect on rate-limiting enzymes for QUIN production. These included IFNγ, TNF, […], CXCL10 and […]. These enzymes were selected based on their regulation of key enzymes, KMO and KYNU, which may lead to supraphysiological accumulation of QUIN. These factors were further evaluated, individually or in combination, on astrocytoma, microglial, and primary monocyte-derived macrophages for mRNA levels of kynurenine pathway enzymes and kynurenine metabolites production (FIG. 17).

DOAY (medulloblastoma) = test: Net production of TRP metabolites in media samples, DOAY; assay type: cell-based
HCN2 (cortical neuron) = test: Net production of TRP metabolites in media samples, HCN2; assay type: cell-based
HMC3 (microglia) = test: Net production of TRP metabolites in media samples, HMC3; assay type: cell-based, human
Text: as §1

THP-1 (monocyte) = test: Net production of TRP metabolites in media samples, THP-1; assay type: cell-based
ALL3.1 (B-ALL) = test: Net production of TRP metabolites in media samples, ALL3.1; assay type: cell-based
BV173 (B-ALL) = test: Net production of TRP metabolites in media samples, BV173; assay type: cell-based
CCRF-SB (B-ALL) = test: Net production of TRP metabolites in media samples, CCRF-SB; assay type: cell-based
KARPAS231 (B-ALL) = test: Net production of TRP metabolites in media samples, KARPAS231; assay type: cell-based
RS4; 11 (B-ALL) = test: Net production of TRP metabolites in media samples, RS4; 11; assay type: cell-based
SUP-B15 (B-ALL) = test: Net production of TRP metabolites in media samples, SUP-B15; assay type: cell-based
[3] = early intervention strategy; cited from earlier work

Compound: O=C(O)c1cc(=O)c2ccccc2[nH]1 [KA, kynurenic acid]
- key chemokines, including CCL2, CXCL9 and CXCL10, and cytokine IL1beta [1]: up-regulation

Compound: Nc1ccccc1C(=O)CC(N)C(=O)O (centres unmarked) [kynurenine]
- production of chemokines and cytokines on co-incubation ([1]; microglial cells, RT-PCR): induced production of several chemokines (CCL2, CXCL9, CXCL10) and cytokines, most notably Il1β
- key chemokines, including CCL2, CXCL9 and CXCL10, and cytokine IL1beta [1]: up-regulation

Compound: CC[C@@H](C(N)=O)N1CCCC1=O [levetiracetam]
- patients who developed seizure despite levetiracetam prophylaxis ([2]; seizure prophylaxis): 14 patients

Compound: O=C(O)c1cccnc1C(=O)O [quinolinic acid]
- p-CREB and p-Erk in cortical neurons (NMDA receptors): p-CREB and p-Erk upregulation

Compound: Il1beta: cytokine
- p-CREB and p-Erk in cortical neurons (NMDA receptors): p-CREB and p-Erk upregulation
- monocyte attracting factors in response to Il1b ([1]; RT-PCR): strong upregulation of monocyte attracting factors, CCL2, CXCL9 and CXCL19

Compound: TNFα
- Net production of TRP metabolites in media samples: 3-HK (CCF-STTG1 (astrocytoma)): −9.8 ± 2.6
- Net production of TRP metabolites in media samples: HAA (CCF-STTG1 (astrocytoma)): 10.74 ± 0.9
- Net production of TRP metabolites in media samples: KA (CCF-STTG1 (astrocytoma)): 1.36 ± 0.5
- Net production of TRP metabolites in media samples: KYN (CCF-STTG1 (astrocytoma)): 2853.38 ± 129.6
- Net production of TRP metabolites in media samples: QUIN (CCF-STTG1 (astrocytoma)): 12.92 ± 4
- Net production of TRP metabolites in media samples: 3-HK (DOAY (medulloblastoma)): −8.84 ± 1.2
- Net production of TRP metabolites in media samples: HAA (DOAY (medulloblastoma)): 10.14 ± 0.8
- Net production of TRP metabolites in media samples: KA (DOAY (medulloblastoma)): 4.52 ± 0.7
- Net production of TRP metabolites in media samples: KYN (DOAY (medulloblastoma)): 35.94 ± 12.9
- Net production of TRP metabolites in media samples: QUIN (DOAY (medulloblastoma)): 19.86 ± 7.1
- Net production of TRP metabolites in media samples: 3-HK (HCN2 (cortical neuron)): 4.82 ± 1.9
- Net production of TRP metabolites in media samples: HAA (HCN2 (cortical neuron)): 4.52 ± 0.3
- Net production of TRP metabolites in media samples: KA (HCN2 (cortical neuron)): 1.56 ± 1.5
- Net production of TRP metabolites in media samples: KYN (HCN2 (cortical neuron)): 5.4 ± 10
- Net production of TRP metabolites in media samples: QUIN (HCN2 (cortical neuron)): 8.44 ± 12.2
- Net production of TRP metabolites in media samples: 3-HK (HMC3 (microglia)): 7.44 ± 18
- Net production of TRP metabolites in media samples: HAA (HMC3 (microglia)): −2.14 ± 0.45
- Net production of TRP metabolites in media samples: KA (HMC3 (microglia)): 3.38 ± 2.9
- Net production of TRP metabolites in media samples: KYN (HMC3 (microglia)): 506.02 ± 251^
- Net production of TRP metabolites in media samples: QUIN (HMC3 (microglia)): 52.84 ± 27.6
- Net production of TRP metabolites in media samples: 3-HK (THP-1 (monocyte)): 0.82 ± 1.5
- Net production of TRP metabolites in media samples: KA (THP-1 (monocyte)): −9.9 ± 5
- Net production of TRP metabolites in media samples: KYN (THP-1 (monocyte)): 298.62 ± 61.8
- Net production of TRP metabolites in media samples: QUIN (THP-1 (monocyte)): 16.24 ± 51.4
- Net production of TRP metabolites in media samples: 3-HK (ALL3.1 (B-ALL)): 6.26 ± 7.3
- Net production of TRP metabolites in media samples: KA (ALL3.1 (B-ALL)): −4.56 ± 5.5
- Net production of TRP metabolites in media samples: KYN (ALL3.1 (B-ALL)): 76.98 ± 139.6
- Net production of TRP metabolites in media samples: QUIN (ALL3.1 (B-ALL)): −13.1 ± 32.3
- Net production of TRP metabolites in media samples: 3-HK (BV173 (B-ALL)): 10.36 ± 9.9
- Net production of TRP metabolites in media samples: KA (BV173 (B-ALL)): −3.16 ± 2.1
- Net production of TRP metabolites in media samples: KYN (BV173 (B-ALL)): 216.84 ± 141.1 ™
- Net production of TRP metabolites in media samples: QUIN (BV173 (B-ALL)): −8.44 ± 48.4
- Net production of TRP metabolites in media samples: 3-HK (CCRF-SB (B-ALL)): 28.96 ± 22.5
- Net production of TRP metabolites in media samples: HAA (CCRF-SB (B-ALL)): 11.34 ± 3.9
- Net production of TRP metabolites in media samples: KA (CCRF-SB (B-ALL)): −9.3 ± 4.7
- Net production of TRP metabolites in media samples: KYN (CCRF-SB (B-ALL)): 361.62 ± 256.4
- Net production of TRP metabolites in media samples: QUIN (CCRF-SB (B-ALL)): −70.3 ± 30.4
- Net production of TRP metabolites in media samples: 3-HK (KARPAS231 (B-ALL)): 4.94 ± 3.4
- Net production of TRP metabolites in media samples: HAA (KARPAS231 (B-ALL)): 14.18 ± 4.6
- Net production of TRP metabolites in media samples: KA (KARPAS231 (B-ALL)): −7.72 ± 36.9
- Net production of TRP metabolites in media samples: KYN (KARPAS231 (B-ALL)): −72.84 ± 36.9
- Net production of TRP metabolites in media samples: QUIN (KARPAS231 (B-ALL)): −44.96 ± 36.3
- Net production of TRP metabolites in media samples: 3-HK (RS4; 11 (B-ALL)): −0.34 ± 1.9
- Net production of TRP metabolites in media samples: KA (RS4; 11 (B-ALL)): −5.46 ± 5.7
- Net production of TRP metabolites in media samples: KYN (RS4; 11 (B-ALL)): 4.38 ± 25.2
- Net production of TRP metabolites in media samples: QUIN (RS4; 11 (B-ALL)): 42.26 ± 39^
- Net production of TRP metabolites in media samples: 3-HK (SUP-B15 (B-ALL)): 17.56 ± 14^
- Net production of TRP metabolites in media samples: HAA (SUP-B15 (B-ALL)): 6.58 ± 0.8
- Net production of TRP metabolites in media samples: KA (SUP-B15 (B-ALL)): −9.16 ± 3^
- Net production of TRP metabolites in media samples: KYN (SUP-B15 (B-ALL)): 303.8 ± 191
- Net production of TRP metabolites in media samples: QUIN (SUP-B15 (B-ALL)): −67.3 ± 23^

Compound: tocilizumab
- patients with peak neurotoxicity prior to or on the day of tocilizumab administration ([2]; 7 of 16 patients with severe neurotoxicity who received tocilizumab): 43.7%
- patients with peak neurotoxicity after the first dose of tocilizumab ([2]; 9 of 16 patients with severe neurotoxicity who received tocilizumab): 56.3%
- response of neurotoxicity to tocilizumab administration ([2]; in most patients): did not respond
- time from first tocilizumab and/or steroid dose to resolution of CRS (median) ([2]; range 0-3 days): 1 days
- time from first tocilizumab and/or steroid dose to resolution of neurotoxicity (median) ([2]; range 4-21 days): 9 days
- serum IL6 after tocilizumab administration ([2]; serum): transient increase of serum IL6
- effect on CRS ([2]; tocilizumab therapy alone): readily improved CRS
- effect on neurologic symptoms ([2]; tocilizumab therapy alone): did not ameliorate neurologic symptoms
- frequency of severe neurotoxicity [3]: did not affect the frequency of severe neurotoxicity
- rate of severe CRS [3]: decreased the rate of severe CRS
